According to the supplement of paper PMC8837787:
Counter-ions that a name gives are not always drawn.

The compounds below were run on Saccharomyces cerevisiae ABC16-Green Monster. Details: 18 h; 30 °C; YPD.
In short: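 In 96-well plates, 200 µl per well of log-phase drug-sensitive S. cerevisiae ABC16-Green Monster in YPD received eight 1:2 compound dilutions (final 0.1–150 μM) in biological duplicate and was incubated for 18 h at 30 °C. OD600 was read at the start and at 18 h. IC50 was fitted to the background-subtracted readings by variable-slope nonlinear regression in GraphPad Prism.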

Row | Structure (SMILES) | IC50 growth inhibition [µM]
1 | CCOC(=O)c1c(NC(=O)c2c(F)c(F)c(F)c(F)c2F)sc(C(N)=O)c1C | 47.8
2 | COc1ccc(-c2cnc3ccc(N4CCCC4)nn23)cc1OC | 68.5
3 | CC1C=CC=CC=CC=CC=CC=CC=CC(OC2OC(C)C(O)C(N)C2O)CC2OC(O)(CC(O)CC(O)C(O)CCC(O)CC(O)CC(=O)OC(C)C(C)C1O)CC(O)C2C(=O)O (stereo not drawn) [Amphotericin B] | 63.3
4 | COc1ccc(CN2CCN(C(c3ccc(F)cc3)c3ccc(F)cc3)CC2)c(OC)c1OC [Lomerizine] | 14.2
5 | CCCCCC(=O)N[C@H](C(=O)N[C@@H](CCS(C)(=O)=O)C(=O)N[C@@H](CC(C)C)C(=O)[C@@]1(C)CO1)C(C)C [Carmaphycin B] | 24.8
6 | Cc1nn(C)cc1C(C)Nc1nncc(-c2ccc(C(F)(F)F)cc2)n1 (stereo not drawn) | 44.9
7 | Cc1cc(C)nc(-n2nc(C)cc2Nc2ccccc2)n1 | 42.1
8 | CCCCc1ccc(C(=O)Nc2nccc3ccccc23)nc1 | 54.7
9 | CCC1(O)C(=O)OCc2c1cc1n(c2=O)Cc2cc3c(CN(C)C)c(O)ccc3nc2-1 (stereo not drawn) [Topotecan] | > 75
10 | C(#Cc1ccc(-c2cc[nH]n2)s1)c1ccccc1 | 18.9
11 | CCCCCCCCCCCCCCCCOP(=O)([O-])OCC[N+](C)(C)C [Miltefosine] | 9.3
12 | CC(C)c1csc(NC(=O)c2cnn(-c3ccccc3F)c2C(F)(F)F)n1 | 31.3
13 | FC(F)(F)c1cccc(Nc2nc3ccccc3nc2Nc2cccc(C(F)(F)F)c2)c1 | 1.6
14 | c1cc2c(cc1C1=NNC(=NC3CC3)SC1)CCCC2 | 50.8
15 | COC1CC2CCC(C)C(O)(O2)C(=O)C(=O)N2CCCCC2C(=O)OC(C(C)CC2CCC(OCCO)C(OC)C2)CC(=O)C(C)C=C(C)C(O)C(OC)C(=O)C(C)CC(C)C=CC=CC=C1C (stereo not drawn) [Everolimus] | 0.0415
16 | CN1CCN(S(=O)(=O)c2ccc(-c3ccc4c(Nc5ncc(Cl)cn5)ccnc4c3)cc2)CC1 | 43.4
17 | CNC(=O)c1nn(C)c2c1C(C)(C)Cc1cnc(Nc3ccc(N4CCN(C)CC4)cc3)nc1-2 [milciclib maleate] | 84.1
18 | CC(C)(C)c1ccc(NC(=O)c2ccc[nH]c2=S)cc1 | 25.4
19 | Cc1ccc2nc3ccccc3c(N3CCN(C(=O)c4ccccc4)CC3)c2c1 | 6.15
20 | C=C1CCC(O)CC1=CC=C1CCCC2(C)C1CCC2C(C)CCCC(C)(C)O (stereo not drawn) [Calcifediol] | > 150
21 | OCCNc1nc(Nc2ccc(Cl)c(Cl)c2)nc2ccccc12 | 14

Row | Structure (SMILES) | IC50 growth inhibition [µM]
22 | C[C@@H]1COCCN1c1cc(C2(S(C)(=O)=O)CC2)nc(-c2cccc3[nH]ccc23)n1 [AZ-20] | > 75
23 | C[C@H]1Cc2c([nH]c3cc(Cl)c(F)cc23)[C@@]2(N1)C(=O)Nc1ccc(Cl)cc12 [KAE609] | 7.65
24 | Cc1cc(C(C)(C)CC(C)(C)C)ccc1OCCOCC[N+](C)(C)Cc1ccccc1 [KAAA726] | 3.74
25 | COCCNCC(O)Cn1c2ccc(Cl)cc2c2cc(Cl)ccc21 (stereo not drawn) | 11
26 | N=C(N)c1ccc(OCCCCCOc2ccc(C(=N)N)cc2)cc1 [Pentamidine] | 85.9
27 | CN[C@H]1C[C@@H](N)[C@H](O)[C@@H](O[C@@H]2O[C@H](CO)[C@H](O)[C@@H]3O[C@@]4(O[C@H]23)O[C@H]([C@H](N)CO)[C@H](O)[C@H](O)[C@H]4O)[C@@H]1O [Hygromycin B] | 13.8
28 | Cc1cc(NCCc2ccccc2)nc(NC(=N)Nc2ccc(Cl)cc2)n1 | 53.8
29 | C[C@H](c1ccc2c(c1)CCCC2)N(C)c1ncc2c(N)nc(N)nc2n1 | 30.5
30 | Oc1c(I)cc(I)c2cccnc12 [Iodoquinol] | 5.5
31 | CCOc1ccc(C(=O)CN(C#N)C(=O)c2ccccc2)cc1 | 25
32 | c1csc(-c2cnc3sc(NCC4CCOCC4)nn23)c1 | 2.98
33 | O[C@@H](c1cc(C(F)(F)F)nc2c(C(F)(F)F)cccc12)[C@H]1CCCCN1 | 45.6
34 | CC(C(=O)O)c1ccc2c(c1)[nH]c1ccc(Cl)cc12 (stereo not drawn) [Carprofen] | > 75
35 | CN1CC(C(=O)NC2(C)OC3(O)C4CCCN4C(=O)C(Cc4ccccc4)N3C2=O)CC2c3cccc4[nH]cc(c34)CC21 (stereo not drawn) [Dihydroergotamine] | > 75
36 | CC(=O)c1ccc(-c2ccc(C(=O)N3CCCc4ccccc43)o2)cc1 | 52.4
37 | CCCc1nn(C)c2c(=O)nc(-c3cc(S(=O)(=O)N4CCN(C)CC4)ccc3OCC)[nH]c12 [Sildenafil citrate] | > 75
38 | CC(C)(C)C(O)C(Oc1ccc(-c2ccccc2)cc1)n1cncn1 (stereo not drawn) | 70
39 | COC1C(OC(N)=O)C(O)C(Oc2ccc3c(O)c(NC(=O)c4ccc(O)c(CC=C(C)C)c4)c(=O)oc3c2C)OC1(C)C (stereo not drawn) [Novobiocin] | > 75
40 | CCc1ccc(Nc2cc(C)c3ccc(O)cc3n2)cc1 | 2.09
41 | OC1=C2C(=Nc3ccccc3SC2c2cccs2)c2ccccc21 (stereo not drawn) [GNF-Pf-5669] | > 150
42 | COC(=O)C1=C(C)NC(C)=C(C(=O)OCC(C)C)C1c1ccccc1[N+](=O)[O-] (stereo not drawn) [Nisoldipine] | 41

Row | Structure (SMILES) | IC50 growth inhibition [µM]
43 | OCCNc1nc(Oc2ccc(-c3ccccc3)cc2)nc2ccccc12 | 21.7
44 | COc1cc(C)c2c(Oc3cccc(C(F)(F)F)c3)c(OC)cc(NC(C)CCCN)c2n1 (stereo not drawn) [Tafenoquine] | 101
45 | Cc1cc(C(=O)Cn2cnc3ccccc3c2=O)c(C)n1-c1ccccc1 | 61
46 | COc1cc(C=Cc2ccc(O)cc2)cc(OC)c1 [Pterostilbene] | 29.4
47 | CN(C)CCCN1c2ccccc2CCc2ccc(Cl)cc21.Cl [Clomipramine] | 18.3
48 | CN(C)C(=N)N=C(N)N [Metformin] | > 75
49 | Cc1cc(C)n(-c2ccc(CN3c4ccc(S(N)(=O)=O)cc4CC3C)cc2)n1 (stereo not drawn) | 129
50 | COc1cccc2c1C(=O)c1c(O)c3c(c(O)c1C2=O)CC(O)(C(=O)CO)CC3OC1CC(N)C(O)C(C)O1 (stereo not drawn) [Doxorubicin] | 11.2
51 | c1ccc(-c2cc(N3CCCCC3)c3ccccc3n2)nc1 | 42.9
52 | FC(F)(F)c1ccc(N(c2cccnc2)C2CCN(c3ccc(C(F)(F)F)cn3)CC2)cc1 | 40
53 | O=C(Nc1ccccc1)c1ccc(-c2cc3ccncc3cc2OC2CCNCC2)s1 | 44.8
54 | CCOC(=O)c1c(NC(=O)CNCc2ccccn2)sc(CC)c1C | 47.8
55 | CN(C)c1ccc(C(O)(c2ccc(N(C)C)cc2)c2ccc(N(C)C)cc2)cc1 | 0.317
56 | O=C(c1ccco1)N(CCCn1ccnc1)c1nc2c(Cl)cccc2s1 | 40.8
57 | O=C(Nc1ccc(C(F)(F)F)c(C(F)(F)F)c1)c1cc(Cl)ccc1O | 5.64
58 | CCS(=O)(=O)N1Cc2ccccc2CC1C(=O)Nc1nc2ccc(F)cc2s1 (stereo not drawn) | 74
59 | CCCCc1oc2ccccc2c1C(=O)c1cc(I)c(OCCN(CC)CC)c(I)c1 [Amiodarone] | 5.72
60 | CCOc1ccc(Oc2ccc(S(=O)(=O)NC(C)c3ccncc3)cc2)cc1 (stereo not drawn) | 51.1
61 | O=C(Nc1c(O)cccc1-c1nc2c(C(=O)O)cccc2o1)c1cc(-c2ccccc2)on1 | 38.7
62 | CN(CC=CC#CC(C)(C)C)Cc1cccc2ccccc12.Cl [Terbinafine] | 76.9
63 | CCC1(O)CC2CN(CCc3c([nH]c4ccccc34)C(C(=O)OC)(c3cc4c(cc3OC)N(C)C3C(O)(C(=O)OC)C(OC(C)=O)C5(CC)C=CCN6CCC43C65)C2)C1 (stereo not drawn) [Vinblastine] | > 75

Row | Structure (SMILES) | IC50 growth inhibition [µM]
64 | Cc1cc(=O)nc(N/N=C/c2cc(C)n(CC(F)(F)F)c2C)[nH]1 | 81.9
65 | COC(=O)C1=C(C)NC(C)=C(C(=O)OC(C)C)C1c1cccc2nonc12 (stereo not drawn) | 65.4
66 | C=CCC1C=C(C)CC(C)CC(OC)C2OC(O)(C(=O)C(=O)N3CCCCC3C(=O)OC(C(C)=CC3CCC(O)C(OC)C3)C(C)C(O)CC1=O)C(C)CC2OC (stereo not drawn) [Tacrolimus/FK-506] | > 75
67 | COc1cccc(-n2nnnc2S(C)(=O)=O)c1 | 53.8
68 | CCC1(O)C(=O)OCc2c1cc1n(c2=O)Cc2cc3ccccc3nc2-1 (stereo not drawn) [Camptothecin] | 1.61
69 | Cc1cc(Nc2cccc(F)c2)nc(NCc2ccccc2)n1 | 21.9
70 | CC1(C)C2CCC(C2)C1(C)NC(=S)NN=Cc1ccccn1 (stereo not drawn) [GNF-Pf-5458] | 3.1
71 | CCOC(=O)Nc1ccc(NCc2ccc(F)cc2)cc1N [Retigabine] | > 75
72 | CCC(=C(c1ccc(O)cc1)c1ccc(OCCNC)cc1)c1ccccc1 [Endoxifen] | 8.3
73 | COc1cc(CNC(=O)CCCCC=CC(C)C)ccc1O [Capsaicin] | > 150
74 | Clc1cccc(Nc2ncc(-c3ccc4c(c3)OCCCO4)s2)c1 | 15.4
75 | Oc1c(C(Nc2ccccn2)c2cccc(Cl)c2Cl)ccc2cccnc12 (stereo not drawn) [GNF-Pf-5250] | > 150
76 | COC(=O)C1=C(C)NC(C)=C(C(=O)OC(C)C)C1c1cccc2nonc12 (stereo not drawn) [Israpidine] | > 150
77 | OCc1ccc(-c2cncc(Nc3cccc(Cl)c3)c2)cc1 | 6.31
78 | N#C/C(=N\Nc1cc(C(F)(F)F)cc(C(F)(F)F)c1)S(=O)(=O)c1cccs1 | 99
79 | Cc1cc(N(C)Cc2ccccc2Br)nc(N)n1 | 52.6
80 | COc1ccc2cc(CN(C)CC(=O)Nc3sccc3C(N)=O)ccc2c1 | 60.6
81 | COc1ccccc1N=C1C(=O)c2ccccc2C(O)=C1N1CCCCC1 | 7.84
82 | NC(=O)NO [Hydroxyurea] | > 75
83 | Cc1ccc(CNc2ncnc3sccc23)cc1 | 13.4
